The numbers were not newly measured in article PMC12808597, “Spatially diffuse cAMP signalling with oppositely biased GLP-1 receptor agonists in β-cells despite differences in receptor localisation” (Molecular Metabolism, 2025), which cites them from elsewhere.

No end group written: not given here.

Series [1] has as its system BRIN-BD11 clonal β-cells. The conditions noted are these: ref [5]. The text has this:
(§1) In this work we relied on agonist-specific patterns of internalisation to provide selective endosomal or plasma membrane localisation of active GLP-1R. Alternative approaches include pharmacological or genetic inhibition of receptor internalisation, for example the small molecule dynamin inhibitor dyngo4A [55] or overexpression of dominant negative dynamin K44 mutants, both of which have been used to probe the importance of GLP-1R internalisation on its signalling responses.

Series [2] deals with HEK293 cells. As to conditions: ref [16].
Text: as §1

For series [3], the system named is rodent systems. The conditions noted are these: no reference given.
Series [4] deals with GLP-1R. As to conditions: ref [6],[26]. The source says: In this context, interest has emerged in GLP-1R agonist ligands (GLP-1RAs) showing distinct trafficking profiles, which could lead to altered signalling from intracellular locations [[14], [15], [16]], as has been extensively noted for other GPCRs [[17], [18], [19]].
In series [5] the test system is GLP-1R. The conditions noted are these: ref [12]. The source says:
GPCR signalling localisation is now a major area of research interest. Inherent to this phenomenon is the assumption that signalling responses are subject to tight spatial control, for example in the form of sharp cAMP concentration gradients close to the site of generation. Indeed, this has been reported when comparing GLP-1-induced cAMP responses at different plasma membrane nanodomains in HEK293 cells with overexpressed GLP-1R [12]. This contrasts somewhat with the current work in which cAMP was rapidly detected at intracellular locations distant from the activated GLP-1R in β-cell ...

With `O=C(N/N=C/c1ccc(O)c(O)c1)c1cc2ccccc2cc1O` [dynasore], the “Effect on exendin-4-induced cAMP production” value in series [1] is given as “reduced exendin-4-induced cAMP production”.

On to `O=C(N/N=C/c1cc(O)c(O)cc1O)c1cc2ccccc2cc1O` [dyngo4a], for which, in series [2], the “Effect on GLP-1RA signalling responses” value was “broad inhibition of GLP-1RA signalling responses”. Turning to `Cc1cc(-n2nc3c(c2-n2ccn(-c4ccc5c(cnn5C)c4F)c2=O)[C@H](C)N(C(=O)c2cc4cc([C@H]5CCOC(C)(C)C5)ccc4n2[C@@]2(c4noc(=O)[nH]4)C[C@@H]2C)CC3)cc(C)c1F` [orforglipron], in series [3], the “Activity in rodent systems” value was “inactive”. Turning to “AMG133: GLP-1RA/GIPR antagonistic antibody”, in series [4], the “GLP-1R-mediated delivery to early endosomes” value is listed as “enhanced GLP-1R-mediated delivery to early endosomes”. For “GLP-1: GLP-1, as used in Anton et al. [12] (HAEGTFTSDVSSYLEGQAAKEFIAWLVKGR; ends and bridges not checked; UniProt P01275 98-127, looked up)”, the “cAMP at GLP-1R nanodomain” value in series [5] (GLP-1 1 pM) was “cAMP increases within 60 nm of the GLP-1R in HEK293 cells without changes to whole cell or overall plasma membrane cAMP”. Further, the “cAMP gradient at GLP-1R nanodomain” value in series [5] (GLP-1 1 nM and 100 nM) is “no such gradient was seen”.
